Assay [1] relates to Rattus norvegicus. Put plainly: In vivo mean dose ratio (MDR) activity against the pressor response induced by big ET-1 in alderley park rats at 1 hr after (1 mg/kg) oral administration. It counts as functional.
The target in another assay is T1, Endothelin-1 receptor (Homo sapiens, UniProt P25101).
T1 sequence (P25101 whole entry): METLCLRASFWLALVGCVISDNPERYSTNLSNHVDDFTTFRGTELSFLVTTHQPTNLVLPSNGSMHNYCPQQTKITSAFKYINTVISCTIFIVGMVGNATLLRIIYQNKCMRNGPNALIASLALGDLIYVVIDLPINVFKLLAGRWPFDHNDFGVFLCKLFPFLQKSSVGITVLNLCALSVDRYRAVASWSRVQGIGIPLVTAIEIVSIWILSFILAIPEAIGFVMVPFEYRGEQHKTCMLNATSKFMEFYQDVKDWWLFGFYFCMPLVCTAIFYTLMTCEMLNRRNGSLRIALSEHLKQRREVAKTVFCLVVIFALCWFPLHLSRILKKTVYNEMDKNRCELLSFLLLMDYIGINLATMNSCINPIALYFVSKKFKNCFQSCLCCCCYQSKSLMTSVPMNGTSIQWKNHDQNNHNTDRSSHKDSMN
Nature of the assay: In vitro binding was measured by the displacement of [125I]ET1 from membranes prepared from MEL cells transfected with cloned human ETA receptors. Format: cell membranes. In general terms: In a radioligand displacement assay an active substance lowers the binding of a labelled ligand.

The test system of assay [2] is Rattus norvegicus. Nature of the assay: In vivo mean dose ratio(MDR) activity against the pressor response induced by big ET-1 in alderley park rats at 30 min after (2.5 mg/kg) oral administration. Format: functional.
Assay [3] deals with Rattus norvegicus. Put plainly: In vivo mean dose ratio(MDR) activity against the pressor response induced by big ET-1 in alderley park rats at 4 hr after (2.5 mg/kg) oral administration. It counts as functional.
Assay [4] has as its system Rattus norvegicus. Nature of the assay: In vivo mean dose ratio(MDR) activity against the pressor response induced by big ET-1 in alderley park rats at 2 hr after (2.5 mg/kg) oral administration. Format: functional.

SMILES strings stand for the structures.

With `COCCNC(=O)c1cccc(S(=O)(=O)Nc2ncc(C)nc2OC)c1-c1ccc(CC(C)C)cc1`, the MDR with Rattus norvegicus [1] is reported as 3.2. Further, at Endothelin-1 receptor, the IC50 (as a rule, the concentration that inhibits the measured activity by half) was 0.501 nM.
On Endothelin-1 receptor, `COc1nc(Br)cnc1NS(=O)(=O)c1ccccc1-c1ccccc1` had an IC50 of 31.6 nM. This counts as double-digit nanomolar.
With `COc1nc(C)cnc1NS(=O)(=O)c1cccc(C(N)=O)c1-c1ccc(CC(C)C)cc1`, the MDR in the assay on Rattus norvegicus [1] stood at 2.4. The compound further gave an IC50 at Endothelin-1 receptor of 1 nM.
`COc1nc(Br)cnc1NS(=O)(=O)c1cccc(C(=O)N(C)C)c1-c1ccc(CC(C)C)cc1` had an IC50 at Endothelin-1 receptor of 1 nM. This lies in the single-digit nanomolar range.
`COc1nc(Br)cnc1NS(=O)(=O)c1ccccc1-c1ccc(CC(C)C)cc1` had an IC50 on Endothelin-1 receptor of 39.8 nM.
On to `COc1nc(C)cnc1NS(=O)(=O)c1cccc(C(=O)N(C)C)c1-c1ccc(CC(C)C)cc1`, for which the MDR in the assay on Rattus norvegicus [1] came to 1.6. This compound also had an IC50 at Endothelin-1 receptor of 2.51 nM.
As for `COc1nc(C)cnc1NS(=O)(=O)c1cccc(C(=O)NCCO)c1-c1ccc(CC(C)C)cc1`, the MDR in the assay on Rattus norvegicus [1] was found to be 4.2. In addition, on Endothelin-1 receptor, the IC50 is 0.631 nM.
For `COCCNC(=O)c1cccc(S(=O)(=O)Nc2ncc(Br)nc2OC)c1-c1ccc(CC(C)C)cc1` the same measures were 2.1 and 1.58 nM.
As to `CNC(=O)c1cccc(S(=O)(=O)Nc2ncc(Br)nc2OC)c1-c1ccccc1`, the IC50 at Endothelin-1 receptor was 39.8 nM.
Compound `COc1nc(Br)cnc1NS(=O)(=O)c1cccc(C(N)=O)c1-c1ccc(CC(C)C)cc1` showed an IC50 on Endothelin-1 receptor of 0.794 nM.
On to `CNC(=O)c1cccc(S(=O)(=O)Nc2ncc(C)nc2OC)c1-c1ccc(CC(C)C)cc1`, for which the MDR in the assay on Rattus norvegicus [1] is on record as 3.2. The values for the Oral activity with Rattus norvegicus [2], in the assay on Rattus norvegicus [3] and in the assay on Rattus norvegicus [4] were 6.2, 4 and 3.3, respectively. The compound also showed an IC50 at Endothelin-1 receptor of 0.501 nM.
`CCCCCNC(=O)c1cccc(S(=O)(=O)Nc2ncc(Br)nc2OC)c1-c1ccccc1` showed an IC50 on Endothelin-1 receptor of 3.98 nM.
`COc1nc(Br)cnc1NS(=O)(=O)c1cccc(C(N)=O)c1-c1ccccc1` gave an IC50 at Endothelin-1 receptor of 39.8 nM.
As for `CNC(=O)c1cccc(S(=O)(=O)Nc2ncc(Br)nc2OC)c1-c1ccc(CC(C)C)cc1`, the MDR in the assay on Rattus norvegicus [1] is recorded as 2.7. For the same compound, the IC50 on Endothelin-1 receptor was 1.26 nM.
On Endothelin-1 receptor, `CCCCCNC(=O)c1cccc(S(=O)(=O)Nc2ncc(Br)nc2OC)c1-c1ccc(CC(C)C)cc1` showed an IC50 of 200 nM.

For the origin of these results see ChEMBL document CHEMBL1130440, “N-Methyl-2-[4-(2-methylpropyl)phenyl]-3-(3-methoxy-5-methylpyrazin-2-ylsulfamoyl)benzamide; one of a class of novel benzenesulphonamides which are orally-active, ETA-selective endothelin antagonists” (Bioorg Med Chem Lett, 1997).
